Test results from patent US20030130290A1, “Fungicidal combinations comprising thieno[2,3-d]pyrimidin-4-one” (priority 1997, published 2003).

Legend:
[1] = system: Erysiphe graminis f.sp. tritici; experiment: Efficacy against Erysiphe graminis f.sp. tritici on wheat (Example B-1), spray application; format: in vivo, Erysiphe graminis f.sp. tritici on wheat plants c.v. Arina
Text: (§1) A synergistic effect exists whenever the action of an active ingredient combination is greater than the sum of the actions of the individual components.
(§2) The action to be expected E for a given active ingredient combination obeys the so-called COLBY formula and can be calculated as follows (COLBY, S. R. “Calculating synergistic and antagonistic responses of herbicide combination”. Weeds, Vol. 15, pages 20-22; 1967):
(§3) According to Colby, the expected (additive) action of active ingredients I+II using p+q ppm of active ingredient is [formula]
(§4) If the action actually observed (O) is greater than the expected action (E), then the action of the combination is superadditive, i.e. there is a synergistic effect. Alternatively the synergistic action may also be determined from the dose response curves according to the so-called WADLEY method. With this method the efficacy of the a.i. is determined by comparing the degree of fungal attack on treated plants with that on untreated, similarly inoculated and incubated check plants. Each a.i. is tested at 4 to 5 concentrations. The dose response curves are used to establish the EC90 (i.e. concentration of a.i. providing 90% disease control) of the single compounds as well as of the combinations (EC 90observed). The thus experimentally found values of the mixtures at a given weight ratio are compared with the values that would have been found were only a complementary efficacy of the components was present (EC 90 (A+B)expected). The EC90 (A+B)expected is calculated according to Wadley (Levi et al., EPPO- Bulletin 16, 1986, 651-657): [formula]
Wheat plants c.v. “Arina”, about 10 days old, are sprayed with aqueous suspensions of the active ingredients or mixtures thereof. One day later, the plants are inoculated by dusting with spores of Erysiphe graminis. The tests may also be carried out with curative applications, i.e. application 1-3 days after artificial inoculation of the plants. The plants are incubated in the greenhouse or in climate chambers at 20° C., 70% relative humidity. 7 to 10 days after inoculation, fungal attack on primary leaves is assessed.
(§5) The efficacy of the test combinations and the single active ingredients in the above tests is determined by comparing the degree of fungal attack with that on untreated, similarly inoculated check plants.

[2] = system: Helminthosporium gramineum; experiment: Activity against Helminthosporium gramineum on barley (Example B-12), seed treatment; format: in vivo; conditions: Table 6
Text: as §1, §2, §3, §4
Barley seed which is infected with H.gramineum is harvested from the field. […] About 60 days after sowing, the number of existing plants and the number of infected plants are determined. Symptoms are expressed as typical stripe-shaped spots on the first leaf. The total infection rate is compared with the total infection rate in the comparison seed trays with untreated seeds and expressed as the total percentage infection rate.

[3] = system: Puccinia recondita; experiment: Activity against Puccinia recondita in wheat (B-7), spray application; format: in vivo, Puccinia recondita on wheat plants c.v. Arina; conditions: Table 5
Text: as §1, §2, §3, §4
Wheat plants c.v. “Arina”, about 10 days old, are sprayed with aqueous suspensions of the active ingredients or mixtures thereof. One day later, the plants are inoculated with a spore suspension of the fungus. The test may also be carried out with curative applications, i.e. application 1-3 days later after artificial inoculation of the plants. The plants are incubated in a growth chamber for 2 days at °20° C. and 95-100% relative humidity, then further 10 days at 20° C. and 70% relative humidity. Fungal attack on primary leaves is assessed.
as §5

In the case of `N#Cc1c[nH]cc1-c1cccc2c1OC(F)(F)O2` [Fludioxonil, fludioxonil, reference compound], the “% activity observed” value ([1]; Table 1, 10 ppm alone) was 2%, the “% activity observed” value ([1]; Table 1, 25 ppm alone) was 0% and the “% activity observed” value ([1]; Table 1, 50 ppm alone) was 6%. The “% activity observed” value ([1]; Table 1, 100 ppm alone) was 14%, the “% activity observed” value ([1]; Table 1, 250 ppm alone) was 19% and the “% activity observed” value ([1]; Table 1, 500 ppm alone) was 27%.
With `CCCOc1nc2sc(Cl)cc2c(=O)n1CCC` [cmpd. I.01] the “% activity observed” value ([2]; 20 g a.i./100 kg seed alone) was 11%, the “% activity observed” value ([1]; Table 1, 10 ppm alone) was 0% and the “% activity observed” value ([1]; Table 1, 25 ppm alone) was 0%. For the same compound, the “% activity observed” value ([1]; Table 1, 50 ppm alone) was 12%, the “% activity observed” value ([1]; Table 1, 100 ppm alone) was 26% and the “% activity observed” value ([1]; Table 1, 250 ppm alone) was 34%. The “% activity observed” value ([1]; Table 1, 500 ppm alone) was 66%, the “% activity observed” value ([1]; Table 2, 1 ppm alone) was 0% and the “% activity observed” value ([1]; Table 2, 2.5 ppm alone) was 0%. For the same compound, the “% activity observed” value ([1]; Table 2, 5 ppm alone) was 8%, the “% activity observed” value ([1]; Table 2, 10 ppm alone) was 8% and the “% activity observed” value ([1]; Table 2, o.5 ppm alone) was 0%. The “% activity observed” value ([1]; Table 3, 0.5 ppm alone) was 2%, the “% activity observed” value ([1]; Table 3, 1 ppm alone) was 0% and the “% activity observed” value ([1]; Table 3, 2.5 ppm alone) was 14%. The “% activity observed” value ([1]; Table 3, 5 ppm alone) was 8%, the “% activity observed” value ([1]; Table 3, 10 ppm alone) was 4% and the “% activity observed” value ([1]; Table 4, 0.25 ppm alone) was 0%. The “% activity observed” value ([1]; Table 4, 0.5 ppm alone) was 0%, the “% activity observed” value ([1]; Table 4, 1 ppm alone) was 0% and the “% activity observed” value ([1]; Table 4, 2.5 ppm alone) was 0%. The “% activity observed” value ([3]; 0.5 ppm alone) was 0%, the “% activity observed” value ([3]; 1 ppm alone) was 0% and the “% activity observed” value ([3]; 2.5 ppm alone) was 0%. For the same compound, the “% activity observed” value ([3]; 5 ppm alone) was 0%, the “% activity observed” value ([3]; 10 ppm alone) was 0% and the “% activity observed” value ([3]; 25 ppm alone) was 0%.
Compound `CON=C(C(=O)OC)c1ccccc1CON=C(C)c1cccc(C(F)(F)F)c1` [cmpd. V, methyl 2-{2-[4-(3-trifluoromethylphenyl)-3-aza-2-oxa-3-pentenyl]-phenyl}-2-methoxyimino-acetate, reference compound] has an inhibition at 1 ppm ([3]; Puccinia recondita, 1 ppm alone, read-out: % activity observed) of 17%, an inhibition at 2.5 ppm ([3]; Puccinia recondita, 2.5 ppm alone, read-out: % activity observed) of 32% and an inhibition at 5 ppm ([3]; Puccinia recondita, 5 ppm alone, read-out: % activity observed) of 38%. It also gave an inhibition at 10 ppm ([3]; Puccinia recondita, 10 ppm alone, read-out: % activity observed) of 37%.
In the case of `CC(C1CC1)C(O)(Cn1cncn1)c1ccc(Cl)cc1` (stereo not drawn) [cyproconazole, reference compound], the “% activity observed” value ([1]; Table 2, 1 ppm alone) was 8%, the “% activity observed” value ([1]; Table 2, 2.5 ppm alone) was 49% and the “% activity observed” value ([1]; Table 2, 5 ppm alone) was 100%. For the same compound, the “% activity observed” value ([1]; Table 2, 10 ppm alone) was 100%.
Compound `CC(Cc1ccc(C(C)(C)C)cc1)CN1CCCCC1` (stereo not drawn) [fenpropidine, reference compound] has an inhibition at 2.5 ppm ([1]; Blumeria graminis, Table 4, 2.5 ppm alone, read-out: % activity observed) of 35%, an inhibition at 5 ppm ([1]; Blumeria graminis, Table 4, 5 ppm alone, read-out: % activity observed) of 51% and an inhibition at 10 ppm ([1]; Blumeria graminis, Table 4, 10 ppm alone, read-out: % activity observed) of 63%.
With `CCCC1COC(Cn2cncn2)(c2ccc(Cl)cc2Cl)O1` (stereo not drawn) [propiconazole, reference compound] the “% activity observed” value ([1]; Table 3, 0.1 ppm alone) was 0%, the “% activity observed” value ([1]; Table 3, 0.25 ppm alone) was 0% and the “% activity observed” value ([1]; Table 3, 0.5 ppm alone) was 6%. For the same compound, the “% activity observed” value ([1]; Table 3, 1 ppm alone) was 8% and the “% activity observed” value ([1]; Table 3, 2.5 ppm alone) was 72%.
`CC1(C)CC/C(=C\c2ccc(Cl)cc2)C1(O)Cn1cncn1` (stereo not drawn) [triticonazole] was tested, and the “% activity observed” value ([2]; 20 g a.i./100 kg seed alone) was 12% and the “% activity observed” value ([2]; 40 g a.i./100 kg seed alone) was 22%.
